Assays:
Conditions in all cases: 72 h
[1] = tested on: HepG2; test: relative viability EC50 (midpoint between 100% and the lowest measured viability); higher = less toxic
[2] = tested on: U2OS; test: as above
[3] = tested on: Calu-3; test: as above
[4] = tested on: Caco-2; test: as above
[5] = tested on: HepG2; test: drug sensitivity score (DSS) for viability; higher = more toxic; extreme values may be limits of the assay
[6] = tested on: U2OS; test: as above
[7] = tested on: Calu-3; test: as above
[8] = tested on: Caco-2; test: as above
[9] = tested on: HepG2; test: cell viability relative to DMSO; higher = less toxic
[10] = tested on: U2OS; test: as above
[11] = tested on: Calu-3; test: as above
[12] = tested on: Caco-2; test: as above
[13] = tested on: Vero E6; test: drug sensitivity score (DSS) for viability; higher = more toxic; extreme values may be limits of the assay
[14] = tested on: Vero E6; test: cell viability relative to DMSO; higher = less toxic
[15] = tested on: Vero E6; test: relative viability EC50 (midpoint between 100% and the lowest measured viability); higher = less toxic

Row | Compound | relative viability EC50 [1] [µM] | relative viability EC50 [2] [µM] | relative viability EC50 [3] [µM] | relative viability EC50 [4] [µM] | drug sensitivity score [5] | drug sensitivity score [6] | drug sensitivity score [7] | drug sensitivity score [8] | cell viability ([9]; 1 nM) [%] | cell viability ([9]; 10 nM) [%] | cell viability ([9]; 100 nM) [%] | cell viability ([9]; 1000 nM) [%] | cell viability ([9]; 10000 nM) [%] | cell viability ([10]; 1 nM) [%] | cell viability ([10]; 10 nM) [%] | cell viability ([10]; 100 nM) [%] | cell viability ([10]; 1000 nM) [%] | cell viability ([10]; 10000 nM) [%] | cell viability ([11]; 1 nM) [%] | cell viability ([11]; 10 nM) [%] | cell viability ([11]; 100 nM) [%] | cell viability ([11]; 1000 nM) [%] | cell viability ([11]; 10000 nM) [%] | cell viability ([12]; 1 nM) [%] | cell viability ([12]; 10 nM) [%] | cell viability ([12]; 100 nM) [%] | cell viability ([12]; 1000 nM) [%] | cell viability ([12]; 10000 nM) [%] | drug sensitivity score [13] | cell viability ([14]; 1 nM) [%] | cell viability ([14]; 10 nM) [%] | cell viability ([14]; 100 nM) [%] | cell viability ([14]; 1000 nM) [%] | cell viability ([14]; 10000 nM) [%] | relative viability EC50 [15] [µM]
1 | CCN(CCCCOC(=O)c1ccc(OC)c(OC)c1)C(C)Cc1ccc(OC)cc1 (stereo unspecified) [mebeverine] | > 10 | > 10 | > 10 | > 10 | 0 | 0 | 0 | 0.6 | 105 | 112 | 100 | 103 | 91.6 | 102 | 99.4 | 99.1 | 102 | 96.3 | 95.2 | 98.3 | 101 | 100 | 93.8 | 101 | 96.3 | 97.2 | 90.8 | 83.8 |  |  |  |  |  |  | 
2 | Sc1ncnc2nc[nH]c12 [mercaptopurine] | 1.23 |  | > 10 | > 10 | 8.7 | 5.6 | 0 | 3.1 | 112 | 115 | 107 | 69.7 | 18.8 | 102 | 101 | 93.4 | 71 | 65.1 | 113 | 91 | 94.3 | 90.8 | 106 | 110 | 103 | 109 | 77 | 89.6 | 1.1 | 103 | 104 | 99.5 | 103 | 70.6 | 
3 | COc1ccc(C2=N[C@@H](c3ccc(Cl)cc3)[C@@H](c3ccc(Cl)cc3)N2C(=O)N2CCNC(=O)C2)c(OC(C)C)c1 [nutlin-3] | 1.95 | > 10 | > 10 | > 10 | 5.3 | 1.1 | 0 | 0 | 104 | 115 | 109 | 89.7 | 35 | 94.7 | 93.6 | 95.3 | 98.7 | 75.2 | 91.6 | 98.1 | 89.7 | 92.4 | 108 | 94.2 | 92.1 | 92.5 | 97.9 | 89.1 | 2.1 | 106 | 98.9 | 94.5 | 97.5 | 63.7 | 
4 | CCC(CC)[C@H](NC(C)=O)[C@@H]1[C@H](O)[C@@H](C(=O)O)C[C@H]1NC(=N)N [peramivir] | > 10 | > 10 | > 10 | > 10 | 0 | 0 | 0 | 0 | 110 | 98.6 | 102 | 110 | 98.9 | 103 | 110 | 98.9 | 110 | 104 | 93.3 | 98.3 | 98.1 | 107 | 101 | 98.8 | 101 | 104 | 105 | 102 |  |  |  |  |  |  | 
5 | NNCCc1ccccc1 [phenelzine] | > 10 | > 10 |  | > 10 | 0 | 0 |  | 1.4 | 109 | 92.8 | 84.1 | 120 | 91.4 | 98.4 | 98.7 | 94.6 | 99.8 | 95.1 |  |  |  |  |  | 88.4 | 100 | 93.4 | 92.6 | 75.1 | 0 | 105 | 103 | 101 | 90.3 | 98 | > 10
6 | NC(=O)CN1CC(c2ccccc2)CC1=O (stereo unspecified) [phenylpiracetam] | > 10 | > 10 | > 10 | > 10 | 0 | 0 | 0 | 0 | 112 | 107 | 104 | 94 | 104 | 99.3 | 102 | 98.1 | 102 | 98.1 | 103 | 97.3 | 99.5 | 98.5 | 91.7 | 104 | 103 | 93.1 | 102 | 91.8 |  |  |  |  |  |  | 
7 | CC(C)(C)NC(=O)[C@@H]1C[C@@H]2CCCC[C@@H]2CN1C[C@@H](O)[C@H](Cc1ccccc1)NC(=O)[C@H](CC(N)=O)NC(=O)c1ccc2ccccc2n1 [saquinavir] | > 10 | > 10 | > 10 |  | 1 | 0 | 0 | 1.9 | 91.8 | 90.1 | 100 | 82.2 | 84.3 | 101 | 101 | 100 | 103 | 89.8 | 96.8 | 104 | 93.2 | 102 | 109 | 101 | 87.9 | 95.7 | 90.4 | 72.4 | 0 | 103 | 101 | 104 | 85.1 | 101 | > 10
8 | CC(C)N(CCCCOCC(=O)NS(C)(=O)=O)c1cnc(-c2ccccc2)c(-c2ccccc2)n1 [selexipag] |  |  | > 10 | > 10 |  |  | 0 | 0 |  |  |  |  |  |  |  |  |  |  | 95 | 105 | 97.3 | 110 | 105 | 110 | 103 | 94.5 | 107 | 105 | 0 | 100 | 102 | 93 | 98.4 | 93.2 | > 10
9 | CC1=CC[C@@H](C(C)(C)O)C[C@@H]1O [sobrepin] | > 10 |  |  | > 10 | 0 |  |  | 0 | 109 | 99.6 | 114 | 103 | 110 |  |  |  |  |  |  |  |  |  |  | 109 | 121 | 94.4 | 103 | 87.9 | 0 | 98 | 99.7 | 96.3 | 98.1 | 90.7 | > 10
10 | O=S(=O)(O)Oc1ccc(C(c2ccc(OS(=O)(=O)O)cc2)c2ccccn2)cc1 [sodium-picosulfate] |  | > 10 | > 10 | > 10 |  | 0 | 0 | 0 |  |  |  |  |  | 102 | 106 | 97.1 | 104 | 99.1 | 87.6 | 95 | 82.2 | 100 | 93.8 | 88.4 | 102 | 96.3 | 102 | 106 |  |  |  |  |  |  | 
11 | O=C(OC[C@H]1O[C@@H](OC(=O)c2cc(O)c(O)c(OC(=O)c3cc(O)c(O)c(O)c3)c2)[C@H](OC(=O)c2cc(O)c(O)c(OC(=O)c3cc(O)c(O)c(O)c3)c2)[C@@H](OC(=O)c2cc(O)c(O)c(OC(=O)c3cc(O)c(O)c(O)c3)c2)[C@@H]1OC(=O)c1cc(O)c(O)c(OC(=O)c2cc(O)c(O)c(O)c2)c1)c1cc(O)c(O)c(OC(=O)c2cc(O)c(O)c(O)c2)c1 [tannic-acid] |  |  | > 10 | 3.04 | 0.8 | 2.7 | 0.4 | 3.2 | 108 | 94.6 | 104 | 104 | 74.2 | 97.7 | 98.5 | 93.7 | 97.8 | 53.1 | 94.4 | 99.9 | 98.6 | 108 | 78.8 | 99.6 | 93.5 | 90.5 | 99.1 | 43.5 | 5.7 | 103 | 109 | 102 | 77.4 | 48.8 | 1.1
12 | c1cnc(SCc2cccnc2)nc1 [tasuldine] | > 10 | > 10 |  | > 10 | 0 | 0 |  | 0 | 105 | 105 | 105 | 106 | 97.9 | 101 | 96.3 | 101 | 94.3 | 99.9 |  |  |  |  |  | 96.5 | 96.9 | 101 | 94.8 | 101 | 0 | 105 | 98.5 | 96.7 | 102 | 99.7 | > 10
13 | CC(C)OC(=O)[C@H](C)N[P@](=O)(CO[C@H](C)Cn1cnc2c(N)ncnc21)Oc1ccccc1 [tenofovir-alafenamide] | 1.75 | > 10 | > 10 | > 10 | 4.8 | 0 | 0.5 | 0 | 98.8 | 91.9 | 116 | 89 | 44.6 | 99.4 | 102 | 97.4 | 100 | 95.6 | 106 | 97.4 | 112 | 104 | 78.9 | 99.3 | 100 | 98.2 | 108 | 94.3 |  |  |  |  |  |  | 
14 | S=C(NCCc1ccccn1)Nc1ccc(Br)cn1 [trovirdine] | > 10 | > 10 | > 10 | > 10 | 0 | 0 | 0 | 0 | 103 | 105 | 102 | 106 | 92.1 | 104 | 100 | 98.4 | 104 | 98.7 | 89.2 | 96.2 | 101 | 102 | 108 | 94.9 | 91.6 | 98.4 | 90 | 98.1 |  |  |  |  |  |  | 
15 | CCCC(CCC)C(=O)NCC(N)=O [valrocemide] | > 10 | > 10 |  | > 10 | 0 | 0 |  | 0 | 94.6 | 101 | 95.6 | 102 | 101 | 104 | 101 | 97.7 | 104 | 98.9 |  |  |  |  |  | 95.6 | 94.1 | 91.5 | 90.9 | 97.6 | 0 | 97.3 | 104 | 104 | 97.8 | 101 | > 10

From the supplement of paper PMC13380429
